In patent US20250353891A1 (MEDIMMUNE LIMITED, priority 2022, published 2025):
Starred links: 1 amine or outer side, 2 acyl side, 3 side chain; linkers in the order of their positions; H or OH if unused. Non-standard residues stand in square brackets, D forms with d. Residues, ends and D or L forms follow the SMILES beside them. Groups on a side chain read outwards from the residue. *: point of attachment. C18 diacid = O=C(O)CCCCCCCCCCCCCCCCC(=O)*; γGlu = O=C(O)[C@H](CCC(=O)[*:2])N[*:1]; αMeF = C[C@](N)(Cc1ccccc1)C(=O)O; AEEA = NCCOCCOCC(=O)O; Aib = CC(C)(N)C(=O)O

Experiments:
[1] = target: human GLP-1 receptor (hGLP-1R) (Homo sapiens, UniProt P43220); assay: cAMP production (HTRF) in CHO cells expressing hGLP-1R; type: cell-based; parameters: expressed in transfected cells; conditions: for EC50: Table 6, peptides modified at position 17, cAMP in CHO hGLP-1R cells, geometric mean, read-out: hGLP-1R EC50; for % Relative Potency Ratio: Table 6, % GLP-1R activity relative to GLP-1 / % GlucR activity relative to glucagon
human GLP-1 receptor (hGLP-1R), sequence (P43220 24-463): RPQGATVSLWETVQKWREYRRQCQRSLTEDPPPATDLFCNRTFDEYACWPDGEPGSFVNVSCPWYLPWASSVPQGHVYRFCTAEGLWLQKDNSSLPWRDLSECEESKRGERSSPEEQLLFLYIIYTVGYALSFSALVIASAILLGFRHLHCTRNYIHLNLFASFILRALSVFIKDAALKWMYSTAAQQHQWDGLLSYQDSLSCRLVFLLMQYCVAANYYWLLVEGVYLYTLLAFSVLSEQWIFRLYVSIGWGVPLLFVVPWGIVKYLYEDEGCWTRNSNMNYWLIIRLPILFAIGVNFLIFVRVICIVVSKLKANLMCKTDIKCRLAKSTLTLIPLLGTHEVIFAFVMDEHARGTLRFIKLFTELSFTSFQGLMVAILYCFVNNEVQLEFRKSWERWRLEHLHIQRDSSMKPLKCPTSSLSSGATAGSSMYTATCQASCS
Summary of the method: (§1)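 Potency values represent EC50 from 4-parameter logistic curves of HTRF % Delta F signal. Receptor-expressing CHO cells (hGCGR 2×10^5 cells/mL, hGLP-1R 1×10^5 cells/mL) were exposed for 30 min at room temperature before two-step cAMP detection.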

[2] = target: human glucagon receptor (hGCGR) (Homo sapiens, UniProt P47871); assay: cAMP production (HTRF) in CHO cells expressing hGCGR; type: cell-based; parameters: expressed in transfected cells; conditions: Table 6, peptides modified at position 17; cAMP in CHO hGCGR cells; geometric mean; read-out: hGluc-R EC50
human glucagon receptor (hGCGR), sequence (P47871 26-477): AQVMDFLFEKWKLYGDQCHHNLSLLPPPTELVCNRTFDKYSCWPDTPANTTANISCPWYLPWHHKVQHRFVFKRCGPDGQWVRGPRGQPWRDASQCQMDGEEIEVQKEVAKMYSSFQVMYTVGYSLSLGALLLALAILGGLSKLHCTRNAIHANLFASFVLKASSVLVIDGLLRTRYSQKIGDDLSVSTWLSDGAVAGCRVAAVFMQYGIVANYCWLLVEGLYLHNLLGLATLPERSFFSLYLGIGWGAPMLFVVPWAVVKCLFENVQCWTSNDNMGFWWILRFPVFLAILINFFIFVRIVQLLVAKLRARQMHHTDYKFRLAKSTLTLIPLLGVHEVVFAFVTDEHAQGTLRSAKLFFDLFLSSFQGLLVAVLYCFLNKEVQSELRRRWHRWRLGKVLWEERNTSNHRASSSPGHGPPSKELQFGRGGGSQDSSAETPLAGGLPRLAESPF
Summary of the method: as §1

SMILES	EC50 [1]	% Relative Potency Ratio [1]	EC50 [2]
CC(C)C[C@H](NC(=O)[C@H](CC(C)C)NC(=O)[C@H](Cc1c[nH]c2ccccc12)NC(=O)[C@H](CCCNC(=N)N)NC(=O)[C@@H](NC(=O)[C@H](Cc1ccccc1)NC(=O)[C@H](CC(=O)O)NC(=O)[C@H](CCC(N)=O)NC(=O)[C@H](C)NC(=O)[C@H](CCCNC(=N)N)NC(=O)[C@H](CCCCNC(=O)COCCOCCNC(=O)COCCOCCNC(=O)CC[C@H](NC(=O)CCCCCCCCCCCCCCCCC(=O)O)C(=O)O)NC(=O)[C@@H](NC(=O)[C@H](CC(=O)O)NC(=O)[C@H](CC(C)C)NC(=O)[C@](C)(Cc1ccccc1)NC(=O)[C@H](CCCCN)NC(=O)[C@H](CO)NC(=O)[C@@H](NC(=O)[C@H](CC(=O)O)NC(=O)[C@H](CO)NC(=O)[C@@H](NC(=O)[C@H](Cc1ccccc1)NC(=O)[C@@H](NC(=O)CNC(=O)[C@H](CCC(N)=O)NC(=O)C(C)(C)NC(=O)[C@@H](N)Cc1c[nH]cn1)[C@@H](C)O)[C@@H](C)O)C(C)C)[C@@H](C)O)C(C)C)C(=O)N[C@@H](CCC(=O)O)C(=O)N[C@@H](C)C(=O)NCC(=O)O [Peptide 186] (H-H[Aib]QGTFTSDVSK[αMeF]LDTK([AEEA-AEEA-γGlu-C18 diacid])RAQDFVRWLLEAG-OH; N-terminus assumed)	0.0449 nM	4.4	0.101 nM
CC[C@H](C)[C@H](NC(=O)[C@H](CC(C)C)NC(=O)[C@H](Cc1c[nH]c2ccccc12)NC(=O)[C@H](CCCNC(=N)N)NC(=O)[C@@H](NC(=O)[C@H](Cc1ccccc1)NC(=O)[C@H](CC(=O)O)NC(=O)[C@H](CCC(N)=O)NC(=O)[C@H](C)NC(=O)[C@H](CCCNC(=N)N)NC(=O)[C@H](CCCCNC(=O)COCCOCCNC(=O)COCCOCCNC(=O)CC[C@H](NC(=O)CCCCCCCCCCCCCCCCC(=O)O)C(=O)O)NC(=O)[C@H](CO)NC(=O)[C@H](CC(=O)O)NC(=O)[C@H](CC(C)C)NC(=O)[C@](C)(Cc1ccccc1)NC(=O)[C@H](CCCCN)NC(=O)[C@H](CO)NC(=O)[C@@H](NC(=O)[C@H](CC(=O)O)NC(=O)[C@H](CO)NC(=O)[C@@H](NC(=O)[C@H](Cc1ccccc1)NC(=O)[C@@H](NC(=O)CNC(=O)[C@H](CCC(N)=O)NC(=O)C(C)(C)NC(=O)[C@@H](N)Cc1c[nH]cn1)[C@@H](C)O)[C@@H](C)O)C(C)C)C(C)C)C(=O)NC(C)(C)C(=O)N[C@@H](CCC(=O)O)C(=O)O [Peptide 196] (H-H[Aib]QGTFTSDVSK[αMeF]LDSK([AEEA-AEEA-γGlu-C18 diacid])RAQDFVRWLI[Aib]E-OH; N-terminus assumed)	0.027 nM	17.6	0.24 nM
CC(C)C[C@H](NC(=O)[C@H](Cc1c[nH]c2ccccc12)NC(=O)[C@H](CCCNC(=N)N)NC(=O)[C@@H](NC(=O)[C@H](Cc1ccccc1)NC(=O)[C@H](CC(=O)O)NC(=O)[C@H](CCCNC(=N)N)NC(=O)[C@H](C)NC(=O)[C@H](CCCNC(=N)N)NC(=O)[C@H](CCCCNC(=O)COCCOCCNC(=O)COCCOCCNC(=O)CC[C@H](NC(=O)CCCCCCCCCCCCCCCCC(=O)O)C(=O)O)NC(=O)[C@@H](NC(=O)[C@H](CC(=O)O)NC(=O)[C@H](CC(C)C)NC(=O)[C@](C)(Cc1ccccc1)NC(=O)[C@H](CCCCN)NC(=O)[C@H](CO)NC(=O)[C@@H](NC(=O)[C@H](CC(=O)O)NC(=O)[C@H](CO)NC(=O)[C@@H](NC(=O)[C@H](Cc1ccccc1)NC(=O)[C@@H](NC(=O)CNC(=O)[C@H](CCC(N)=O)NC(=O)C(C)(C)NC(=O)[C@@H](N)Cc1c[nH]cn1)[C@@H](C)O)[C@@H](C)O)C(C)C)[C@@H](C)O)C(C)C)C(=O)N[C@@H](CC(C)C)C(=O)NC(C)(C)C(=O)N[C@@H](CCC(=O)O)C(=O)O [Peptide 197] (H-H[Aib]QGTFTSDVSK[αMeF]LDTK([AEEA-AEEA-γGlu-C18 diacid])RARDFVRWLL[Aib]E-OH; N-terminus assumed)	0.064 nM	3.5	0.112 nM

Results, then the compound that gave them:

EC50 [1]	% Relative Potency Ratio [1]	EC50 [2]	SMILES
0.0441 nM	10.3	0.23 nM	CC(C)C[C@H](NC(=O)[C@H](Cc1c[nH]c2ccccc12)NC(=O)[C@H](CCCNC(=N)N)NC(=O)[C@@H](NC(=O)[C@H](Cc1ccccc1)NC(=O)[C@H](CC(=O)O)NC(=O)[C@H](CCC(N)=O)NC(=O)[C@H](C)NC(=O)[C@H](CCCNC(=N)N)NC(=O)[C@H](CCCCNC(=O)COCCOCCNC(=O)COCCOCCNC(=O)CC[C@H](NC(=O)CCCCCCCCCCCCCCCCC(=O)O)C(=O)O)NC(=O)[C@@H](NC(=O)[C@H](CC(=O)O)NC(=O)[C@H](CC(C)C)NC(=O)[C@](C)(Cc1ccccc1)NC(=O)[C@H](CCCCN)NC(=O)[C@H](CO)NC(=O)[C@@H](NC(=O)[C@H](CC(=O)O)NC(=O)[C@H](CO)NC(=O)[C@@H](NC(=O)[C@H](Cc1ccccc1)NC(=O)[C@@H](NC(=O)CNC(=O)[C@H](CCC(N)=O)NC(=O)C(C)(C)NC(=O)[C@@H](N)Cc1c[nH]cn1)[C@@H](C)O)[C@@H](C)O)C(C)C)[C@@H](C)O)C(C)C)C(=O)N[C@@H](CC(C)C)C(=O)N[C@@H](CCC(=O)O)C(=O)NC(C)(C)C(=O)NCC(N)=O [Peptide 185] (H-H[Aib]QGTFTSDVSK[αMeF]LDTK([AEEA-AEEA-γGlu-C18 diacid])RAQDFVRWLLE[Aib]G-NH2; N-terminus assumed)
0.0113 nM	7.7	0.0443 nM	CC(C)C[C@H](NC(=O)[C@H](Cc1c[nH]c2ccccc12)NC(=O)[C@H](CCCNC(=N)N)NC(=O)[C@@H](NC(=O)[C@H](Cc1ccccc1)NC(=O)[C@H](CC(=O)O)NC(=O)[C@H](CCCNC(=N)N)NC(=O)[C@H](C)NC(=O)[C@H](CCCNC(=N)N)NC(=O)[C@H](CCCCNC(=O)COCCOCCNC(=O)COCCOCCNC(=O)CC[C@H](NC(=O)CCCCCCCCCCCCCCCCC(=O)O)C(=O)O)NC(=O)[C@@H](NC(=O)[C@H](CC(=O)O)NC(=O)[C@H](CC(C)C)NC(=O)[C@](C)(Cc1ccccc1)NC(=O)[C@H](CCCCN)NC(=O)[C@H](CO)NC(=O)[C@@H](NC(=O)[C@H](CC(=O)O)NC(=O)[C@H](CO)NC(=O)[C@@H](NC(=O)[C@H](Cc1ccccc1)NC(=O)[C@@H](NC(=O)CNC(=O)[C@H](CCC(N)=O)NC(=O)C(C)(C)NC(=O)[C@@H](N)Cc1c[nH]cn1)[C@@H](C)O)[C@@H](C)O)C(C)C)[C@@H](C)O)C(C)C)C(=O)N[C@@H](CC(C)C)C(=O)N[C@@H](CCC(=O)O)C(=O)NC(C)(C)C(=O)NCC(=O)O [Peptide 189] (H-H[Aib]QGTFTSDVSK[αMeF]LDTK([AEEA-AEEA-γGlu-C18 diacid])RARDFVRWLLE[Aib]G-OH; N-terminus assumed)
0.108 nM	4.2	0.227 nM	CC(C)C[C@H](NC(=O)[C@H](Cc1c[nH]c2ccccc12)NC(=O)[C@H](CCCNC(=N)N)NC(=O)[C@@H](NC(=O)[C@H](Cc1ccccc1)NC(=O)[C@H](CC(=O)O)NC(=O)[C@H](CCC(N)=O)NC(=O)[C@H](C)NC(=O)[C@H](CCCNC(=N)N)NC(=O)[C@H](CCCCNC(=O)COCCOCCNC(=O)COCCOCCNC(=O)CC[C@H](NC(=O)CCCCCCCCCCCCCCCCC(=O)O)C(=O)O)NC(=O)[C@@H](NC(=O)[C@H](CC(=O)O)NC(=O)[C@H](CC(C)C)NC(=O)[C@](C)(Cc1ccccc1)NC(=O)[C@H](CCCCN)NC(=O)[C@H](CO)NC(=O)[C@@H](NC(=O)[C@H](CC(=O)O)NC(=O)[C@H](CO)NC(=O)[C@@H](NC(=O)[C@H](Cc1ccccc1)NC(=O)[C@@H](NC(=O)CNC(=O)[C@H](CCC(N)=O)NC(=O)C(C)(C)NC(=O)[C@@H](N)Cc1c[nH]cn1)[C@@H](C)O)[C@@H](C)O)C(C)C)[C@@H](C)O)C(C)C)C(=O)N[C@@H](CC(C)C)C(=O)NC(C)(C)C(=O)N[C@@H](CCC(=O)O)C(=O)O [Peptide 192] (H-H[Aib]QGTFTSDVSK[αMeF]LDTK([AEEA-AEEA-γGlu-C18 diacid])RAQDFVRWLL[Aib]E-OH; N-terminus assumed)
